# Patent publication US10961200B2, “Small molecule inhibitors of lactate dehydrogenase and methods of use thereof” (THE UNITED STATES OF AMERICA, AS REPRESENTED BY THE …, priority 2014, dated 2021)
# Target: Human LDHA (Homo sapiens (Human), UniProt P00338)
# Assay: human LDHA primary biochemical assay (resazurin/diaphorase coupled, fluorescence)
# Conditions: LDHA inhibitory activity, activity level based on IC50 (Table 7)
# Text: Test compounds were placed in a Greiner Bio-One (Monroe, N.C.) 1536-well black solid bottom assay plate. 200 millimolar (mM) Tris HCl, pH 7.4, 100 micromolar […] EDTA and 0.01% TWEEN-20™, final concentration, was used as the assay buffer. The LDHA reagent was 2 nanomolar (nM) Human LDHA (Meridian Life Science, Inc., Memphis, Tenn.), final concentration, in assay buffer.
row,SMILES,IC50 [µM]
1,NS(=O)(=O)c1ccc(Cc2c(-c3cccc(OCc4ccccc4)c3)nn(-c3nc(C(=O)O)cs3)c2CC2CC2)c(F)c1 [Compound 341],< 0.1
2,Cc1ccc(-c2cc(-c3nn(-c4nc(C(=O)O)cs4)c(CC4CC4)c3Cc3ccc(S(N)(=O)=O)c(F)c3)ccc2F)cc1 [Compound 362],< 0.1
3,"Cc1ccc(-c2cc(-c3nn(-c4nc(C(=O)O)cs4)cc3Cc3ccc(S(N)(=O)=O)cc3)ccc2F)cc1F [Compound 520, 2-(3-(3′,6-difluoro-4′-methyl-[1,1′-biphenyl]-3-yl)-4-(4-sulfamoylbenzyl)-1H-pyrazol-1-yl)thiazole-4-carboxylic acid]",0.1 to 1
4,COc1cccc(-c2cccc(-c3c(Cc4ccc(S(N)(=O)=O)cc4F)c(C4CC4)nn3-c3nc(C(=O)O)cs3)c2)c1 [Compound 360],1 to 57
5,N[S+](=O)([O-])c1ccc(Cc2c(C3CC3)nn(-c3nc(C(=O)O)cs3)c2-c2cccc(-c3ccc(F)cc3)c2)cc1F [Compound 348],1 to 57
6,"COc1cc(-c2cc(-c3nn(-c4nc(C(=O)O)cs4)cc3Cc3ccc(S(N)(=O)=O)cc3)ccc2F)ccc1F [Compound 518, 2-(3-(4′,6-difluoro-3′-methoxy-[1,1′-biphenyl]-3-yl)-4-(4-sulfamoylbenzyl)-1H-pyrazol-1-yl)thiazole-4-carboxylic acid]",< 0.1
7,"Cc1ccc(-c2nn(-c3nc(C(=O)O)cs3)cc2Cc2ccc(S(N)(=O)=O)cc2)cc1-c1cccc(N)c1 [Compound 487, 2-(3-(3′-amino-6-methyl-[1,1′-biphenyl]-3-yl)-4-(4-sulfamoylbenzyl)-1H-pyrazol-1-yl)thiazole-4-carboxylic acid]",< 0.1
8,"Cc1ccc(-c2cc(-c3nn(-c4nc(C(=O)O)cs4)cc3Cc3ccc(S(N)(=O)=O)cc3)ccc2C)cc1C#N [Compound 496, 2-(3-(3′-cyano-4′,6-dimethyl-[1,1′-biphenyl]-3-yl)-4-(4-sulfamoylbenzyl)-1H-pyrazol-1-yl)thiazole-4-carboxylic acid]",0.1 to 1
9,CCOC(=O)c1csc(-n2nc(-c3cccc(-c4ccc(C)cc4)c3)c(Cc3ccc(S(N)(=O)=O)cc3F)c2CC2CC2)n1 [Compound 344],> 57
10,"NS(=O)(=O)c1ccc(Cc2cnn(-c3nc(C(=O)O)cs3)c2-c2cccnc2)cc1 [Compound 475, 2-(5-(pyridin-3-yl)-4-(4-sulfamoylbenzyl)-1H-pyrazol-1-yl)thiazole-4-carboxylic acid]",0.1 to 1
11,"NS(=O)(=O)c1ccc(Cc2c(-c3ccc(F)c(-c4ccc(F)cc4)c3)nn(-c3nc(C(=O)O)cs3)c2C2CC2)cc1 [Compound 482, 2-(5-cyclopropyl-3-(4′,6-difluoro-[1,1′-biphenyl]-3-yl)-4-(4-sulfamoylbenzyl)-1H-pyrazol-1-yl)thiazole-4-carboxylic acid]",< 0.1

# Same assay, conditions: LDHA inhibitory activity, assay of Example 1; activity level classes
row,SMILES,IC50 [µM]
1,"O=C(O)c1csc(-n2nc(-c3ccc(F)c(S(=O)(=O)NCc4ccccc4)c3)cc2O)n1 [Compound 110, 2-(3-(3-(N-benzylsulfamoyl)-4-fluorophenyl)-5-hydroxy-1H-pyrazol-1-yl)thiazole-4-carboxylic acid]",> 57
2,"CS(=O)(=O)c1cc(-c2cc(O)n(-c3nc(C(=O)O)cs3)n2)ccc1F [Compound 94, 2-(3-(4-fluoro-3-(methylsulfonyl)phenyl)-5-hydroxy-1H-pyrazol-1-yl)thiazole-4-carboxylic acid]",> 57
3,Cc1ccc(-c2cc(-c3nn(-c4nc(C(=O)O)cs4)c(C(F)(F)F)c3Cc3ccc(S(N)(=O)=O)cc3)ccc2F)cc1 [Compound 243],< 0.1
4,"Nc1c(Cc2ccc(S(N)(=O)=O)cc2)c(-c2ccccc2)nn1-c1cc(C(=O)O)ccn1 [Compound 145, 2-(5-amino-3-phenyl-4-(4-sulfamoylbenzyl)-1H-pyrazol-1-yl)isonicotinic acid]",> 57
5,CCOC(=O)c1csc(-n2nc(-c3ccc(F)c(-c4cccc(OC)c4)c3)c(Cc3ccc(S(N)(=O)=O)cc3F)c2CC2CC2)n1 [Compound 320],> 57
6,"CS(=O)(=O)NCCc1cc(-c2cc(O)n(-c3nc(C(=O)O)cs3)n2)ccc1F [Compound 122, 2-(3-(4-fluoro-3-(2-(methylsulfonamido)ethyl)phenyl)-5-hydroxy-1H-pyrazol-1-yl)thiazole-4-carboxylic acid]",> 57
7,"COc1c(Cc2ccc(S(N)(=O)=O)cc2)c(-c2ccc(F)c(F)c2)nn1-c1nc(C(=O)O)cs1 [Compound 60, 2-(3-(3,4-difluorophenyl)-5-methoxy-4-(4-sulfamoylbenzyl)-1H-pyrazol-1-yl)thiazole-4-carboxylic acid]",0.1 to 1
8,CCOC(=O)c1csc(-n2nc(CC3CC3)c(Cc3ccc(S(N)(=O)=O)c(F)c3)c2-c2ccc(F)c(-c3cccc(OC)c3)c2)n1 [Compound 321],> 57
9,"C=Cc1c(Cc2ccc(S(N)(=O)=O)cc2)c(-c2ccccc2)nn1-c1nc(C(=O)O)cs1 [Compound 167, 2-(3-phenyl-4-(4-sulfamoylbenzyl)-5-vinyl-1H-pyrazol-1-yl)thiazole-4-carboxylic acid]",< 0.1
10,N[S+](=O)([O-])c1ccc(Cc2c(CC3CC3)nn(-c3nc(C(=O)O)cs3)c2-c2ccc(F)c(-c3cccc(F)c3)c2)cc1F [Compound 325],1 to 57
11,"CCOC(=O)c1csc(-n2nc(C3CC3)c(Oc3ccc(S(N)(=O)=O)cc3)c2-c2ccccc2)n1 [Compound 163, ethyl 2-(3-cyclopropyl-5-phenyl-4-(4-sulfamoylphenoxy)-1H-pyrazol-1-yl)thiazole-4-carboxylate]",> 57
12,"O=C(O)c1csc(-n2nc(-c3ccc(F)c(F)c3)c3cccnc32)n1 [Compound 25, 2-(3-(3,4-difluorophenyl)-1H-pyrazolo[3,4-b]pyridin-1-yl)thiazole-4-carboxylic acid]",> 57
13,"Nc1c(Cc2ccc(S(N)(=O)=O)cc2)c(-c2ccccc2)nn1-c1ccc(=O)[nH]n1 [Compound 128, 4-((5-amino-1-(6-oxo-1,6-dihydropyridazin-3-yl)-3-phenyl-1H-pyrazol-4-yl)methyl)benzenesulfonamide]",> 57
14,"CCOC(=O)c1csc(-n2nc(-c3ccccc3)c(Cc3ccc(S(N)(=O)=O)cc3)c2Cc2nnn[nH]2)n1 [Compound 134, ethyl 2-(5-((1H-tetrazol-5-yl)methyl)-3-phenyl-4-(4-sulfamoylbenzyl)-1H-pyrazol-1-yl)thiazole-4-carboxylate]",> 57
15,"CCOC(=O)OC(C)OC(=O)c1csc(-n2nc(-c3ccc(F)c(F)c3)cc2O)n1 (centres unmarked) [Compound 105, 1-((ethoxycarbonyl)oxy)ethyl 2-(3-(3,4-difluorophenyl)-5-hydroxy-1H-pyrazol-1-yl)thiazole-4-carboxylate]",> 57

# Same assay, conditions: read-out: Inhibitory activity IC50
row,SMILES,IC50 [µM]
1,"NC(=O)c1csc(-n2nc(-c3cccc(-c4ccccc4)c3)c(Cc3ccc(S(N)(=O)=O)cc3)c2O)n1 [Compound 70, 2-(3-([1,1′-biphenyl]-3-yl)-5-hydroxy-4-(4-sulfamoylbenzyl)-1H-pyrazol-1-yl)thiazole-4-carboxamide]",> 57
2,"O=C(O)c1csc(-n2nc(-c3cccc(-c4ccccc4F)c3)cc2O)n1 [Compound 63, 2-(3-(2′-fluoro-[1,1′-biphenyl]-3-yl)-5-hydroxy-1H-pyrazol-1-yl)thiazole-4-carboxylic acid]",> 57
3,"Cc1noc(C)c1-c1cc(-c2c(Cc3ccc(S(N)(=O)=O)c(F)c3)c(CC3CC3)nn2-c2nc(C(=O)O)cs2)ccc1F [Compound 220, 2-(3-(cyclopropylmethyl)-5-(3-(3,5-dimethylisoxazol-4-yl)-4-fluorophenyl)-4-(3-fluoro-4-sulfamoylbenzyl)-1H-pyrazol-1-yl)thiazole-4-carboxylic acid]",> 57
4,"NS(=O)(=O)c1ccc(Cc2c(CC3CC3(F)F)nn(-c3nc(C(=O)O)cs3)c2-c2cccc(-c3ccccc3)c2)cc1 (centres unmarked) [Compound 208, 2-(5-([1,1′-biphenyl]-3-yl)-5-((2,2-difluorocyclopropyl)methyl)-4-(4-sulfamoylbenzyl)-1H-pyrazol-1-yl)thiazole-4-carboxylic acid]",1 to 57
5,"NC(=O)c1csc(-n2nc(-c3ccccc3)c(Cc3ccc(S(N)(=O)=O)cc3)c2I)n1 [Compound 78, 2-(5-iodo-3-phenyl-4-(4-sulfamoylbenzyl)-1H-pyrazol-1-yl)thiazole-4-carboxamide]",1 to 57
6,"NS(=O)(=O)c1ccc(Oc2c(-c3ccccc3)nn(-c3nc(C(=O)O)cs3)c2C2CCCCC2)cc1 [Compound 173, 2-(5-cyclohexyl-3-phenyl-4-(4-sulfamoylphenoxy)-1H-pyrazol-1-yl)thiazole-4-carboxylic acid]",1 to 57
7,"NS(=O)(=O)c1ccc(Cc2c(-c3ccccc3)nn(-c3nc(C(=O)O)cs3)c2-c2ccncc2)cc1 [Compound 156, 2-(3-phenyl-5-(pyridin-4-yl)-4-(4-sulfamoylbenzyl)-1H-pyrazol-1-yl)thiazole-4-carboxylic acid]",1 to 57
8,"Cc1csc(-n2nc(-c3ccccc3)c(Cc3ccc(S(N)(=O)=O)cc3)c2N)n1 [Compound 86, 4-((5-amino-1-(4-methylthiazol-2-yl)-3-phenyl-1H-pyrazol-4-yl)methyl)benzenesulfonamide]",1 to 57
9,"NS(=O)(=O)c1ccc(Cc2cn(-c3nc(C(=O)O)cs3)c3ccc(Cc4ccccc4F)cc23)cc1 [Compound 194, 2-(5-(2-fluorobenzyl)-3-(4-sulfamoylbenzyl)-1H-indol-1-yl)thiazole-4-carboxylic acid]",0.1 to 1
10,"O=C(O)c1csc(-n2nc(-c3ccc(F)c(F)c3)cc2Cc2nnn[nH]2)n1 [Compound 75, 2-(5-((1H-tetrazol-5-yl)methyl)-3-(3,4-difluorophenyl)-1H-pyrazol-1-yl)thiazole-4-carboxylic acid]",1 to 57
11,"NS(=O)(=O)c1ccc(Oc2cn(-c3nc(C(=O)O)cs3)nc2-c2ccccc2)cc1 [Compound 33, 2-(3-phenyl-4-(4-sulfamoylphenoxy)-1H-pyrazol-1-yl)thiazole-4-carboxylic acid]",< 0.1
12,N[S+](=O)([O-])c1ccc(Cc2c(CC3CC3)nn(-c3nc(C(=O)O)cs3)c2-c2ccc(F)c(-c3cccc(F)c3)c2)c(F)c1 [Compound 323],1 to 57
